Test results as given in paper PMC9664070, “The anticonvulsant phytocannabinoids CBGVA and CBDVA inhibit recombinant T-type channels” (Frontiers in Pharmacology, 2022).
Where “and” joins values, the source holds several entries; their conditions need not be identical. Identical values can stand only once.

Experiments:
[1] = molecular target: T1, Cav3.1 (Homo sapiens, UniProt O43497); assay: FLIPR calcium 5 assay, inhibition of 10 mM Ca-induced fluorescence; type: cell-based; conditions: for % Inhibition of Fluorescence Cav3.1: 10 µM compound, 10 mM Ca-induced fluorescence, HEK293 cells, mean ± SEM; for IC50: FLIPR concentration-response, HEK293 Cav3.1 cells, read-out: IC50, inhibition of change in fluorescence, Cav3.1
T1 construct: expressed in transfected cells; host or cells: HEK293 Flp-In T-REx
T1 sequence (O43497 whole entry): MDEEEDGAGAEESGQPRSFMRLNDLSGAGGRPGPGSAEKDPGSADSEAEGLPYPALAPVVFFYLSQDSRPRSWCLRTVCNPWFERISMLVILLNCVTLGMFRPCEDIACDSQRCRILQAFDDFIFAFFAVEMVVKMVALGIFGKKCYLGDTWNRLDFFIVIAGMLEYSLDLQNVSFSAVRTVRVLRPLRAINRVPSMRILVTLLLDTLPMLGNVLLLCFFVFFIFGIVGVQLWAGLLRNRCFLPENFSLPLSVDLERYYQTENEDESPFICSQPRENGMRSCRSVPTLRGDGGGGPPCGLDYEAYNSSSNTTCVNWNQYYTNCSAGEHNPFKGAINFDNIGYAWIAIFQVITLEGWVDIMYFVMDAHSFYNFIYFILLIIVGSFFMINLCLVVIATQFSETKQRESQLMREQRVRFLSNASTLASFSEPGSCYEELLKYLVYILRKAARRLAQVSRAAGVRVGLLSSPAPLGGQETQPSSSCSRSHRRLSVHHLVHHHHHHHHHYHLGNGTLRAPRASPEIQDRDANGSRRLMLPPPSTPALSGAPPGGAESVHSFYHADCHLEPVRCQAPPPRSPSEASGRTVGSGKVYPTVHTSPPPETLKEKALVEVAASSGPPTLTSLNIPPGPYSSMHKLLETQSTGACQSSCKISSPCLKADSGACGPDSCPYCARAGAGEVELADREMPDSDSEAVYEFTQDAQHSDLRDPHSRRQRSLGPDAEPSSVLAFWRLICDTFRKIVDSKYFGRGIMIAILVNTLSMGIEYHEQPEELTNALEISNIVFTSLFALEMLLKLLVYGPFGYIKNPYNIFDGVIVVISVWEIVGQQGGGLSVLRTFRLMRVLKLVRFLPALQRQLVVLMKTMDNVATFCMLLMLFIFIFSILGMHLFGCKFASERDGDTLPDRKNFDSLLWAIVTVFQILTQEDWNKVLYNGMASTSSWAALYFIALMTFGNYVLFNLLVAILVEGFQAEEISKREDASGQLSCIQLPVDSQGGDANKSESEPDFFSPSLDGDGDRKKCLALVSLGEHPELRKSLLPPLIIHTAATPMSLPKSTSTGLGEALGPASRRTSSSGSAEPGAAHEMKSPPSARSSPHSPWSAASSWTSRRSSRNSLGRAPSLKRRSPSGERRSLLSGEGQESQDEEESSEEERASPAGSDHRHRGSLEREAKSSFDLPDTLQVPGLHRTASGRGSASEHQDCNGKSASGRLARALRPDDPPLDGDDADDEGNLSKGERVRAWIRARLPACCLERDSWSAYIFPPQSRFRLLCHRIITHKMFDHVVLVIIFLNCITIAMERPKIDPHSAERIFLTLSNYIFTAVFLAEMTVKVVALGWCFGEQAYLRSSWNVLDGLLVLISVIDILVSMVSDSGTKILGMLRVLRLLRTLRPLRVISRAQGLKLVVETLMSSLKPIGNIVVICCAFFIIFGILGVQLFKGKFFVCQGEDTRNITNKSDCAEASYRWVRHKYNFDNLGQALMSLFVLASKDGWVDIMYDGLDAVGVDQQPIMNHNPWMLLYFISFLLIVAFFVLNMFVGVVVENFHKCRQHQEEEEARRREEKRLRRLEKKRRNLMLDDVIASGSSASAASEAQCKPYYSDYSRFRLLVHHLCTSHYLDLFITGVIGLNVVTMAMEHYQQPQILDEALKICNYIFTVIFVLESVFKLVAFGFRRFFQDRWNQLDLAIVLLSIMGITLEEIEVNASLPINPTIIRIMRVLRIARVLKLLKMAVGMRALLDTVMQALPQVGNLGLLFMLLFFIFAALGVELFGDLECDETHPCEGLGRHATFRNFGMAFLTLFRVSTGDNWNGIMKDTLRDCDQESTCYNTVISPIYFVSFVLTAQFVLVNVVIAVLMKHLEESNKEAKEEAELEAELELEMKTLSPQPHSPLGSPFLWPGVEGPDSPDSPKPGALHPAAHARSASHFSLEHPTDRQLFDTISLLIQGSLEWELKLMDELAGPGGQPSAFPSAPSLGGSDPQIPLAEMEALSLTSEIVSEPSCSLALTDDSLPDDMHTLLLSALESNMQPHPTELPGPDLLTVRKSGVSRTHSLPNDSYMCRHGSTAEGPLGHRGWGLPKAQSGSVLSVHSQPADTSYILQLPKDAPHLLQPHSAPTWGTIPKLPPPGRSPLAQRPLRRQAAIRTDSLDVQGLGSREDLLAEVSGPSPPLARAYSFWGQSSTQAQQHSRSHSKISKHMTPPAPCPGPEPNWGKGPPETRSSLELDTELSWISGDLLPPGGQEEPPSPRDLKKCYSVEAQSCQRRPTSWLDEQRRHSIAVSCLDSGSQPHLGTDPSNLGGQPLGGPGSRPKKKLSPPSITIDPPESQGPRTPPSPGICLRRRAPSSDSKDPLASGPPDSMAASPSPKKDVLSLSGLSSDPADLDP
Protocol: (§1) Calcium 5 dye (Molecular Devices, United States ) was used to investigate compound activities at T-type calcium channels using Flexstation III. HEK293 cells overexpressing Cav3.1, Cav 3.2, and Cav 3.3 cells were resuspended in Leibovitz’s L-15 media containing 1% FBS, 1% P/S and 15 mM glucose. 90 µl of the resuspended cells (120,000 cells/well) were plated in a black-walled, 96-well microplate (Corning, NY, United States ) and incubated overnight in humidified air at 37°C. Channel expression was induced with tetracycline (2 μg/ml, Sigma-Aldrich) at plating. On the day of the assay, 90 µl of HBSS containing 5% Calcium dye (bulk kit) and 2.5 mM probenecid (Invitrogen, United States ) was added to each well and incubated for 1 h at 37°C. Change in fluorescence was measured in a FlexStation III plate reader every 2 s (ʎexcitation = 485 nm, ʎemission = 525 nm) for the duration of the experiment at 37°C. After 2 min baseline recording, drugs (20 µL) were added and read for 5 min, followed by 10 mM CaCl2 (20 µl) and read for a further 3 min.
(§2) Unless otherwise stated, five independent experiments were performed for each condition, with each experiment conducted in duplicate. For the calcium assay, change in fluorescence by 10 mM Ca in the presence of drugs was normalised to change in fluorescence caused by 10 mM Ca in the presence of vehicle only to allow for comparison. In the Alphascreen assay, results were normalised to EC80 of ML-186 after subtraction of basal ERK phosphorylation (presence of a vehicle and 0.2% DMSO) to allow for easy comparison between phytocannabinoid activities. We fitted all concentration-response curves to a 4-parameter sigmoidal inhibitory response curve in GraphPad Prism (Version 6 GraphPad Software Inc., CA, United States) to derive IC50 and Emax values. All statistical analyses were conducted with GraphPad Prism. Two-tailed, unpaired t-tests were used to compare two data points and one-way ANOVA for more than two data points with Tukey post-hoc analysis. p-values < 0.05 were considered statistically significant.
(§3) Our investigation of T-type channels began with a single-point screen, as described by [Bladen et al. (2021)]. We screened the inhibitory effect of 10 µM phytocannabinoids on the change in fluorescence elicited by the addition of 10 mM Ca^2+ in cells expressing Cav3.1, Cav3.2 or Cav3.3 channels ([Xie et al., 2007]; [Bladen et al., 2021]).

[2] = molecular target: T2, Cav3.3 (Homo sapiens, UniProt Q9P0X4); assay: as above; type: cell-based; conditions: 10 µM compound, HEK293 cells, mean ± SEM
T2 construct: expressed in transfected cells; host or cells: HEK293 Flp-In T-REx
Protocol: as §1, §2, §3

[3] = system: hyperthermia-induced seizures; parameters: method as in earlier work; conditions: Scn1a+/- mice, ref Anderson et al., 2019, 2021a, 2021b; cited from earlier work
[4] = molecular target: T3, Cav3.2 (Homo sapiens, UniProt O95180); assay: FLIPR calcium 5 assay, inhibition of 10 mM Ca-induced fluorescence; type: cell-based; conditions: for % Inhibition of Fluorescence Cav3.2: 10 µM compound, 10 mM Ca-induced fluorescence, HEK293 cells, mean ± SEM; for IC50: FLIPR concentration-response, HEK293 Cav3.2 cells, read-out: IC50, inhibition of change in fluorescence, Cav3.2
T3 construct: expressed in transfected cells; host or cells: HEK293 Flp-In T-REx
T3 sequence (O95180 whole entry): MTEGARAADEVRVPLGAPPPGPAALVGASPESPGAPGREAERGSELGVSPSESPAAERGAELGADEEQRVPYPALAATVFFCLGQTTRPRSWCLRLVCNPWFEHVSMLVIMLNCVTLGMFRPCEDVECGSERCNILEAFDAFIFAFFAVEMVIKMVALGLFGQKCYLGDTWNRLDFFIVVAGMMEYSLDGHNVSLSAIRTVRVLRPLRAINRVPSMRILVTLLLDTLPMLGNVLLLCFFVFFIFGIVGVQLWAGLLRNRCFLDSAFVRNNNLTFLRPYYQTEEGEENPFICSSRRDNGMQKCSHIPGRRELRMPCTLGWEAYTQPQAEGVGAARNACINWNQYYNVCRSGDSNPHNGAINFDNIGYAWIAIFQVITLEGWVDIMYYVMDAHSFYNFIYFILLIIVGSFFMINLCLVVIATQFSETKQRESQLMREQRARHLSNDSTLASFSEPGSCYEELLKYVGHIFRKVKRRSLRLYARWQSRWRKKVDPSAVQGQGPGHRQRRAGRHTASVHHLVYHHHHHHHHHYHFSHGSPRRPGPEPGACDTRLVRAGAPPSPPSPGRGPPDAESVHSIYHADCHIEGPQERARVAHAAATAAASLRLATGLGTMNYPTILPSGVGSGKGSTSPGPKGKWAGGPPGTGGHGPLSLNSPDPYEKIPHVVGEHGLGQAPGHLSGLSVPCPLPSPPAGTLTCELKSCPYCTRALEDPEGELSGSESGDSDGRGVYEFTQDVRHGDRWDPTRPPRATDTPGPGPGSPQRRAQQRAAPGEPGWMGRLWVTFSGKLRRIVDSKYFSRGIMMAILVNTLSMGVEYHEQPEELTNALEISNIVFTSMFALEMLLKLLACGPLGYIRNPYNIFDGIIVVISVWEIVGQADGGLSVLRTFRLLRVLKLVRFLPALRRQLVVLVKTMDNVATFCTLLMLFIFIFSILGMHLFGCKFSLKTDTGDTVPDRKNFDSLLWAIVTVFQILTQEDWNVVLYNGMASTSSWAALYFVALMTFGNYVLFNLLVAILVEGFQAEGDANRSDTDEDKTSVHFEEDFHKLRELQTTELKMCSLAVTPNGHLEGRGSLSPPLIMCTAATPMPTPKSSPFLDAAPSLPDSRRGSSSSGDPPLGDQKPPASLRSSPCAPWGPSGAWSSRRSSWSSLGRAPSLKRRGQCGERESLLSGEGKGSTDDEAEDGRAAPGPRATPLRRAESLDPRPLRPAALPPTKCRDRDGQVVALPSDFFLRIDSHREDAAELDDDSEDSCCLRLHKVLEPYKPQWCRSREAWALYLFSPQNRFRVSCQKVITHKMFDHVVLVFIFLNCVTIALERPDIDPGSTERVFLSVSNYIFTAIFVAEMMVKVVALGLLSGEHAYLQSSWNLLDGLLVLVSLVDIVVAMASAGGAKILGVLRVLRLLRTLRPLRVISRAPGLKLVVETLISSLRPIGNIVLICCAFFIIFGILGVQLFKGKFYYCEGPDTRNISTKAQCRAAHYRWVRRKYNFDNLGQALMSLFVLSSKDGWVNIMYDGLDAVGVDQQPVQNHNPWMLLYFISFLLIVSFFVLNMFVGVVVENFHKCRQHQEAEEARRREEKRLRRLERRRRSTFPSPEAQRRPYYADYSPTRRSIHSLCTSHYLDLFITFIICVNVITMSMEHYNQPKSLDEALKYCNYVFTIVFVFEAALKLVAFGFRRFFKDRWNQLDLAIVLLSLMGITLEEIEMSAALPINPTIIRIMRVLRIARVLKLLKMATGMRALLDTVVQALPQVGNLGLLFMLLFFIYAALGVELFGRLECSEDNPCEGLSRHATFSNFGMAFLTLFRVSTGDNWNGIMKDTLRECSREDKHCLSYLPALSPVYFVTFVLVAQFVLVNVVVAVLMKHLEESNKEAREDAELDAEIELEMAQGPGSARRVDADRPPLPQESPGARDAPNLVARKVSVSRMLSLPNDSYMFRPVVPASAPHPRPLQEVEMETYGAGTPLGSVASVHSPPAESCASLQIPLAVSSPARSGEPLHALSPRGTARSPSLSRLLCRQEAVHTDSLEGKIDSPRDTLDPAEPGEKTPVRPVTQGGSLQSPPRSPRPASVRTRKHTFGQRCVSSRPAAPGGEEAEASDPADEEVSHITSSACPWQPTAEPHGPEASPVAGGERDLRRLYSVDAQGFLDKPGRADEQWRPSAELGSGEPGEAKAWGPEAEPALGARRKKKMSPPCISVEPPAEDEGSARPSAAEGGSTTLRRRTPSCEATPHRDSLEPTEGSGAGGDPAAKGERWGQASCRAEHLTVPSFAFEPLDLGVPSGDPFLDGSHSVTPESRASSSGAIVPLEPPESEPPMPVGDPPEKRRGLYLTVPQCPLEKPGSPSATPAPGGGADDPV
Protocol: as §1, §2, §3

[5] = system: Cav3.1; parameters: method as in Ross et al., 2008; conditions: ref Ross et al., 2008; read-out: IC50, inhibition of peak Cav3.1 currents; cited from earlier work
[6] = system: Cav3.2; parameters: method as in Ross et al., 2008; conditions: ref Ross et al., 2008; read-out: IC50, inhibition of peak Cav3.2 currents; cited from earlier work
[7] = molecular target: T4, GPR55 (Homo sapiens, UniProt Q9Y2T6); assay: Alphascreen ERK phosphorylation assay, antagonism of ML-186-induced ERK phosphorylation; type: cell-based; conditions: in the presence of EC80 of ML-186 (0.45 µM), HEK 293 GPR55 cells
T4 construct: expressed in transfected cells; host or cells: HEK 293
T4 sequence (Q9Y2T6 whole entry, species assumed): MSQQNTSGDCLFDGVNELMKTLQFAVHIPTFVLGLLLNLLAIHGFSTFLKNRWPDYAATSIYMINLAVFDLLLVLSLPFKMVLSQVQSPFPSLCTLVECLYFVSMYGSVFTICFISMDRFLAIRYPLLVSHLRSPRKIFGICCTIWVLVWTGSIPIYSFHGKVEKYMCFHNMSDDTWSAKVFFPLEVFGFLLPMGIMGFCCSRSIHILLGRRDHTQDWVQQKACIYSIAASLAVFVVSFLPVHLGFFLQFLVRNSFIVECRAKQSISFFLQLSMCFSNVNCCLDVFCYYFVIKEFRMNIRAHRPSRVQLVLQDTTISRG
Protocol: as §2

[8] = molecular target: T1, Cav3.1; assay: Whole-cell voltage-clamp electrophysiology in HEK293 Flp-In T-REx cells; type: cell-based; conditions: for V0.5 of voltage dependence of Cav3.1 activation / half-inactivation (V0.5), steady-state inactivation of Cav3.1: 5 µM compound; for Cav3.1 relative current at 50th action potential, % of first / inhibition of Cav3.1 peak current, second test pulse (P2), slow inactivated state / inhibition of Cav3.1 peak current, first test pulse (P1): 5 µM; for inhibition of Cav3.1 peak current, second test pulse (P2), slow inactivated state / inhibition of Cav3.1 peak current, first test pulse (P1): 2-pulse voltage protocol; for inhibition of Cav3.1 peak current, second test pulse (P2), slow inactivated state: after 10 s pre-conditioning pulse to −80 mV; for inhibition of Cav3.1 peak current, first test pulse (P1): before slow inactivation; for IC50: patch clamp, step −100 mV to −30 mV every 12 s, read-out: IC50, tonic inhibition of Cav3.1 current amplitude
Protocol: All whole-cell voltage-clamp recordings from HEK293 Flp-In T-REx cells stably transfected with human Cav3.1, Cav 3.2 and Cav 3.3 were performed at room temperature. At least 24 h prior to experiments, cells were detached from flasks using trypsin/EDTA and plated into 10 cm sterile tissue culture dishes containing 10 ml of supplemented DMEM and 10–15 glass coverslips (12 mm diameter, ProScitech, QLD, Australia). Culture dishes were then kept overnight in same conditions as flasks to allow cells to adhere to coverslips. They were then transferred to a 30°C/5% CO2 incubator to inhibit cell proliferation until ready to be used for electrophysiology experiments. At this stage, channel expression was induced with tetracycline (2 μg/ml, Sigma-Aldrich) 8–24 h prior to recording cells.
External recording solutions contained (in mM): 114 CsCl, 5 BaCl2, 1 MgCl2, 10 HEPES, 10 glucose, adjusted to pH 7.4 with CsOH. The internal patch pipette solution contained (in mM): 126.5 CsMeSO4, 2 MgCl2, 11 EGTA, 10 HEPES adjusted to pH 7.3 with CsOH. Internal solution was supplemented with 0.6 mM GTP and 2 mM ATP and mixed thoroughly just before use. Liquid junction potentials for the above solutions were calculated before experiments using pClamp 10 software and corrected during experiments. Compounds were prepared daily from 30 mM DMSO stocks and diluted into an external solution just before use. Compounds were then applied rapidly and locally to the cells using a custom-built gravity-driven micro-perfusion system ([Feng et al., 2003]). […] Currents were elicited from a holding potential of -100 mV and were measured by conventional whole-cell patch clamp techniques using an Axopatch 200B amplifier in combination with Clampex 9.2 software. (Molecular Devices, Sunnyvale, CA). After establishing whole cell configuration, cellular capacitance was minimised using the amplifier’s built-in analogue compensation. Series resistance was kept to <10 MΩ and was compensated to at least 85% in all experiments. All data were digitised at 10 kHz with a Digidata 1,320 interface (Molecular Devices) and filtered at 1 kHz (8-pole Bessel filter). Raw and online leak-subtracted data were both collected simultaneously, P/N4 leak subtraction was performed using opposite polarity and after the protocol sweep.
For tonic inhibition of T-type currents, membrane potential was stepped from −100 mV to −30 mV for 200 ms and then allowed to recover for 12 s (1 sweep). A minimum of 10 sweeps were collected under vehicle control external perfusion to allow for control peak current to equilibrate. The drug was then continuously perfused, and sweeps were recorded until no further inhibition was seen (minimum of 3 sweeps with the same amplitude). In current-voltage relation studies, the membrane potential was held at −100 mV and cells were depolarised from −70 to 50 mV in 10 mV increments. For steady-state inactivation studies, a 3.6 s conditioning pre-pulse of various magnitudes (initial holding at −110 mV) was followed by a depolarising pulse to −30 mV. Individual sweeps were separated by 12 s to permit recovery from inactivation between conditioning pulses. The duration of the test pulse was typically 20 ms, and the current amplitude obtained from each test pulse was normalised to that observed at the holding potential of −100 mV.
The effect of CBGVA and CBDVA (5 µM each) on slow inactivation was tested using a 2-pulse voltage protocol as described in Bladen et al., (2021). Briefly, cells expressing Cav3.1 were initially depolarised with a 200 ms test pulse from -120 mV to −30 mV to generate peak current (P1) and followed by a 10 s pre-conditioning pulse to −80 mV to reverse fast inactivation. Cells were further depolarised with another 200 ms test pulse from −120 to −30 mV (P2) (Figure 2 inset).
THC and CBD cause substantial frequency-dependent inhibition of Cav3.2 and Nav1.8 channels, respectively ([Ross et al., 2008]; [Bladen et al., 2021]; [Zhang and Bean, 2021]). […]

[9] = Plasma and brain exposure at anticonvulsant doses in mice (literature); type: in vivo; conditions: from peak plasma concentration and brain-plasma ratio
[10] = ref Anderson et al., cited from earlier work; for Peak plasma concentration: anticonvulsant doses in mice, 2021b; for brain-plasma ratio: 2019
[11] = system: autaptic hippocampal neurons; parameters: method as in Straiker et al., 2021; conditions: ref Straiker et al., 2021; cited from earlier work
[12] = system: dorsal root ganglion neurons; parameters: method as in Straiker et al., 2021; conditions: ref Straiker et al., 2021; cited from earlier work
[13] = system: diacylglycerol lipase; parameters: method as in de Petrocellis et al., 2011; conditions: ref de Petrocellis et al., 2011; cited from earlier work

CCCCCc1cc2c(c(O)c1C(=O)O)C=CC(C)(CCC=C(C)C)O2 (centres unmarked) [CBCA, cannabichromenic acid]
% Inhibition of Fluorescence Cav3.1 [1]: 59 ± 9% | % Inhibition of Fluorescence Cav3.3 [2]: 11 ± 10% | effect against hyperthermia-induced seizures [3]: anticonvulsant

CCCc1cc2c(c(O)c1C(=O)O)C=CC(C)(CCC=C(C)C)O2 (centres unmarked) [CBCVA, cannabichrovarinic acid]
% Inhibition of Fluorescence Cav3.1 [1]: 51 ± 8% | % Inhibition of Fluorescence Cav3.2 [4]: 62 ± 8% | % Inhibition of Fluorescence Cav3.3 [2]: 34 ± 12% | effect against hyperthermia-induced seizures [3]: anticonvulsant

CCCc1cc(O)c2c(c1)OC(C)(CCC=C(C)C)C=C2 (centres unmarked) [CBCV]
% Inhibition of Fluorescence Cav3.2 [4]: -37 ± 21% | effect on influx of Ca2+ ions in cells expressing Cav3.2 ([4]; 10 µM, FLIPR): appeared to increase the influx of Ca^2+ ions | % Inhibition of Fluorescence Cav3.3 [2]: 1 ± 1%

C=C(C)[C@@H]1CCC(C)=C[C@H]1c1c(O)cc(CCCCC)cc1O [CBD, cannabidiol]
IC50 [5]: ~1000 nM | IC50 [6]: ~1000 nM

C=C(C)[C@@H]1CCC(C)=C[C@H]1c1c(O)cc(CCC)c(C(=O)O)c1O [CBDVA, cannabidivarinic acid]
IC50 [1]: 2000 nM | IC50 [4]: 11000 nM | % Inhibition of Fluorescence Cav3.3 [2]: 8 ± 4% | IC50 [7]: 10000 nM | V0.5 of voltage dependence of Cav3.1 activation [8]: −54.7 ± 1.2 mV | half-inactivation (V0.5), steady-state inactivation of Cav3.1 [8]: −70.9 ± 0.5 mV | Cav3.1 relative current at 50th action potential, % of first ([8]; 0.4 Hz stimulation): 90 ± 1% | Cav3.1 relative current at 50th action potential, % of first ([8]; 0.8 Hz stimulation): 93 ± 1% | inhibition of Cav3.1 peak current, second test pulse (P2), slow inactivated state [8]: 45 ± 5% | inhibition of Cav3.1 peak current, first test pulse (P1) [8]: 35 ± 5% | Cav3.1 relative current at 50th action potential, % of first ([8]; 2.0 Hz stimulation): 83 ± 1% | IC50 [8]: 7000 nM | expected brain concentration [9]: 5 µM | Peak plasma concentration [10]: ~239 µM | brain-plasma ratio [10]: 2% | effect against hyperthermia-induced seizures [3]: anticonvulsant | effect on excitatory neurotransmission [11]: did not alter excitatory neurotransmission | effect on calcium responses [12]: did not alter calcium responses | inhibition of diacylglycerol lipase [13]: inhibit the endocannabinoid synthetic enzyme diacylglycerol lipase at a relatively high concentration

CCCCCc1cc(O)c(C/C=C(\C)CCC=C(C)C)c(O)c1C(=O)O [CBGA, cannabigerolic acid]
effect against hyperthermia-induced seizures [3]: anticonvulsant

CCCc1cc(O)c(C/C=C(\C)CCC=C(C)C)c(O)c1C(=O)O [CBGVA, cannabigerovarinic acid]
IC50 [1]: 6000 nM | IC50 [4]: 2000 nM | % Inhibition of Fluorescence Cav3.3 [2]: 35 ± 11% | IC50 [7]: 8000 nM | V0.5 of voltage dependence of Cav3.1 activation [8]: −49.1 ± 0.5 mV | half-inactivation (V0.5), steady-state inactivation of Cav3.1 [8]: −82.1 ± 0.8 mV | Cav3.1 relative current at 50th action potential, % of first ([8]; 0.4 Hz stimulation): 73 ± 3% | Cav3.1 relative current at 50th action potential, % of first ([8]; 0.8 Hz stimulation): 88 ± 1% | inhibition of Cav3.1 peak current, second test pulse (P2), slow inactivated state [8]: 72 ± 3% | inhibition of Cav3.1 peak current, first test pulse (P1) [8]: 61 ± 3% | Cav3.1 relative current at 50th action potential, % of first ([8]; 2.0 Hz stimulation): 77 ± 1% | IC50 [8]: 3000 nM | expected brain concentration [9]: 48 µM | Peak plasma concentration [10]: approximately 1,200 µM | brain-plasma ratio [10]: 4% | effect against hyperthermia-induced seizures [3]: anticonvulsant

CCCc1cc(O)c(C/C=C(\C)CCC=C(C)C)c(O)c1 [CBGV]
% Inhibition of Fluorescence Cav3.1 [1]: < 80% and 51 ± 14% | % Inhibition of Fluorescence Cav3.3 [2]: 6 ± 3%

CC(C)[C@H]1c2ccc(F)cc2CC[C@@]1(CCN(C)CCCc1nc2ccccc2[nH]1)OC(=O)C1CC1 [NNC550396, reference compound]
% Inhibition of Fluorescence Cav3.1 [1]: 82 ± 8% | IC50 [1]: 730 nM | % Inhibition of Fluorescence Cav3.3 [2]: 89 ± 2%
